Measurements taken from ChEMBL document CHEMBL2424575 (Eur J Med Chem, 2013).

Legend:
[1] = molecular target: Dipeptidyl peptidase 9 (Homo sapiens, UniProt Q86TI2)
Description: Inhibition of DPP-9 (unknown origin)

[2] = molecular target: Dipeptidyl peptidase 8 (Homo sapiens, UniProt Q6V1X1); assay: Inhibition of DPP-8 (unknown origin)
[3] = Oral bioavailability in Sprague-Dawley rat at 25 mg/kg; assay type: ADME, organism-based; details: in vivo
[4] = molecular target: Cytochrome P450 3A4 (Homo sapiens, UniProt P08684); assay: Inhibition of CYP3A (unknown origin); assay type: ADME
[5] = Half life in Sprague-Dawley rat at 25 mg/kg, po; assay type: ADME, organism-based; parameters: dose 25 mg/kg, route oral; details: in vivo
[6] = test system: Mus musculus; assay: In vivo inhibition of DPP-4 in ICR mouse assessed as cleavage rate of Gly-Pro-AMC in plasma at 3 mg/kg, po measured at 4.5 hrs by fluorescence assay relative to control; assay type: functional
[7] = Apparent volume of distribution during terminal phase in Sprague-Dawley rat at 5 mg/kg, iv and 25 mg/kg, po; assay type: ADME, organism-based; details: in vivo, read-out: Vz/F
[8] = Plasma clearance in Sprague-Dawley rat at 5 mg/kg, iv and 25 mg/kg, po; assay type: ADME, organism-based
[9] = test system: Mus musculus; assay: In vivo inhibition of DPP-4 in ICR mouse assessed as cleavage rate of Gly-Pro-AMC in plasma at 1 mg/kg, po measured at 4.5 hrs by fluorescence assay relative to control; assay type: functional
[10] = test system: Mus musculus; assay: In vivo inhibition of DPP-4 in ICR mouse assessed as cleavage rate of Gly-Pro-AMC in plasma at 3 mg/kg, po measured at 7 hrs by fluorescence assay relative to control; assay type: functional
[11] = test system: Mus musculus; assay: In vivo inhibition of DPP-4 in ICR mouse assessed as cleavage rate of Gly-Pro-AMC in plasma at 1 mg/kg, po measured at 7 hrs by fluorescence assay relative to control; assay type: functional
[12] = Half life in Sprague-Dawley rat at 5 mg/kg, iv; assay type: ADME, organism-based; parameters: dose 5 mg/kg, route intravenous; details: in vivo
[13] = test system: Mus musculus; assay: In vivo inhibition of DPP-4 in ICR mouse assessed as cleavage rate of Gly-Pro-AMC in plasma at 3 mg/kg, po measured at 0.5 hrs by fluorescence assay relative to control; assay type: functional
[14] = AUC (0 to t) in Sprague-Dawley rat at 25 mg/kg, po; assay type: ADME, organism-based; parameters: dose 25 mg/kg, route oral; details: plasma
[15] = test system: Mus musculus; assay: In vivo inhibition of DPP-4 in ICR mouse assessed as cleavage rate of Gly-Pro-AMC in plasma at 1 mg/kg, po measured at 0.5 hrs by fluorescence assay relative to control; assay type: functional
[16] = test system: Mus musculus; assay: In vivo inhibition of DPP-4 in ICR mouse assessed as cleavage rate of Gly-Pro-AMC in plasma at 1 mg/kg, po measured at 24 hrs by fluorescence assay relative to control; assay type: functional
[17] = molecular target: Voltage-gated inwardly rectifying potassium channel KCNH2 (Homo sapiens, UniProt Q12809); assay: Inhibition of human ERG
[18] = test system: Mus musculus; assay: In vivo inhibition of DPP-4 in ICR mouse assessed as cleavage rate of Gly-Pro-AMC in plasma at 3 mg/kg, po measured at 24 hrs by fluorescence assay relative to control; assay type: functional

Dipeptidyl peptidase 9, sequence (Q86TI2 whole entry): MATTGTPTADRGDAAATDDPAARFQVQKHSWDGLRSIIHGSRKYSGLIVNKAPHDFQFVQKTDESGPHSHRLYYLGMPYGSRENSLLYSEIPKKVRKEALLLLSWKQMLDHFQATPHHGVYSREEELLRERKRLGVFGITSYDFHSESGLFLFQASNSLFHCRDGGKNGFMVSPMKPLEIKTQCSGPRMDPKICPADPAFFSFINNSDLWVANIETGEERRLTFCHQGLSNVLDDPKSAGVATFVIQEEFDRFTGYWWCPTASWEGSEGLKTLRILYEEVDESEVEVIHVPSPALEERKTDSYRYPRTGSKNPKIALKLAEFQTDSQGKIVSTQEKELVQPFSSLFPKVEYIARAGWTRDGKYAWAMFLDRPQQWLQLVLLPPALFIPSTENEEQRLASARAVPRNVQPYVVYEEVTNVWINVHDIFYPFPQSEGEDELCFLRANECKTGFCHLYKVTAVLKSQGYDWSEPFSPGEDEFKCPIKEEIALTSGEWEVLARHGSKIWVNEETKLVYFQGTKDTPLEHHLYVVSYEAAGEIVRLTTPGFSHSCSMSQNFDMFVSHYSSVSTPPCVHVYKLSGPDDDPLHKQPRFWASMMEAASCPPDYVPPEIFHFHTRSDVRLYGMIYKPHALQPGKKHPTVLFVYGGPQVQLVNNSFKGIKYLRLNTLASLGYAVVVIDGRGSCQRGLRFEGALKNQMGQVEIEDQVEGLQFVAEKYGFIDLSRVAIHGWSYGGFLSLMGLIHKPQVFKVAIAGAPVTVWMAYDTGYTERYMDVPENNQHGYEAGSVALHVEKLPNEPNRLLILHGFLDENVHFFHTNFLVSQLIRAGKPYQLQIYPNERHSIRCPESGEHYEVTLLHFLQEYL
Dipeptidyl peptidase 8, sequence (Q6V1X1 whole entry): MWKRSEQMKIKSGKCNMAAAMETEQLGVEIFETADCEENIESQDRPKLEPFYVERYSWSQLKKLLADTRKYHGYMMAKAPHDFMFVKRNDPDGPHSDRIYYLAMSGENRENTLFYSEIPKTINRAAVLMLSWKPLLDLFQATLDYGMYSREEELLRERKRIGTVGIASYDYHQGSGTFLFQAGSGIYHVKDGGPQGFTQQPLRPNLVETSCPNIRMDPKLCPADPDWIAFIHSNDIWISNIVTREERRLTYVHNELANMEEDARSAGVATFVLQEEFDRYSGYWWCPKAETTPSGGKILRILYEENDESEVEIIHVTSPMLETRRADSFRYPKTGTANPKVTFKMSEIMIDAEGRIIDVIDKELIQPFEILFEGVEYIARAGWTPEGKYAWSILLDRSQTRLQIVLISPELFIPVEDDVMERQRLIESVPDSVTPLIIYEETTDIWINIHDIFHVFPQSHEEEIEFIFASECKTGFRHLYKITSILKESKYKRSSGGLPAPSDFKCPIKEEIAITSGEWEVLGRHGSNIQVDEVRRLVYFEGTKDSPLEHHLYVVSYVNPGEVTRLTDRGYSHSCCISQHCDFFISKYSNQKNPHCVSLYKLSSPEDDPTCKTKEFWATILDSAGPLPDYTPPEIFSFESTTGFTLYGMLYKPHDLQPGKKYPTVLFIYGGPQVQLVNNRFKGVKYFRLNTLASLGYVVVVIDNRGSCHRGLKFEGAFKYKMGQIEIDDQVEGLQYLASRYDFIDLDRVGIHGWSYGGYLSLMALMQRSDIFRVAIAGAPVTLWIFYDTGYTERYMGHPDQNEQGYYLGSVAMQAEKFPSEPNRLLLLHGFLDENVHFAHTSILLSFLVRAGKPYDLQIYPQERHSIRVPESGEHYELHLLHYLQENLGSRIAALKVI
Cytochrome P450 3A4, sequence (P08684 whole entry): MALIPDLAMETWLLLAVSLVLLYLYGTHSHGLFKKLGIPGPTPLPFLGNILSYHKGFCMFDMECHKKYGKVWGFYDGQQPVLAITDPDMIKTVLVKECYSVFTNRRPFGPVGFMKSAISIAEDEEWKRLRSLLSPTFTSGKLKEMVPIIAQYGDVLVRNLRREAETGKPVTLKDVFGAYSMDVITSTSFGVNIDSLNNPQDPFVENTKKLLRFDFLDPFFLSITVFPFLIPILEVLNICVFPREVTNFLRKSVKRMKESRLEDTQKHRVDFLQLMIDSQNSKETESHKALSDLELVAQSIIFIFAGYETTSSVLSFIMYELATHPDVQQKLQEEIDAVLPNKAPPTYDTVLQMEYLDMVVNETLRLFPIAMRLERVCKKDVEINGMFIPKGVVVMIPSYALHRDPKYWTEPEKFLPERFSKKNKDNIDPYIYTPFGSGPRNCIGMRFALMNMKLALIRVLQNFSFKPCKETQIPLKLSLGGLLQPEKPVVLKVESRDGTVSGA
Voltage-gated inwardly rectifying potassium channel KCNH2, sequence (Q12809 whole entry): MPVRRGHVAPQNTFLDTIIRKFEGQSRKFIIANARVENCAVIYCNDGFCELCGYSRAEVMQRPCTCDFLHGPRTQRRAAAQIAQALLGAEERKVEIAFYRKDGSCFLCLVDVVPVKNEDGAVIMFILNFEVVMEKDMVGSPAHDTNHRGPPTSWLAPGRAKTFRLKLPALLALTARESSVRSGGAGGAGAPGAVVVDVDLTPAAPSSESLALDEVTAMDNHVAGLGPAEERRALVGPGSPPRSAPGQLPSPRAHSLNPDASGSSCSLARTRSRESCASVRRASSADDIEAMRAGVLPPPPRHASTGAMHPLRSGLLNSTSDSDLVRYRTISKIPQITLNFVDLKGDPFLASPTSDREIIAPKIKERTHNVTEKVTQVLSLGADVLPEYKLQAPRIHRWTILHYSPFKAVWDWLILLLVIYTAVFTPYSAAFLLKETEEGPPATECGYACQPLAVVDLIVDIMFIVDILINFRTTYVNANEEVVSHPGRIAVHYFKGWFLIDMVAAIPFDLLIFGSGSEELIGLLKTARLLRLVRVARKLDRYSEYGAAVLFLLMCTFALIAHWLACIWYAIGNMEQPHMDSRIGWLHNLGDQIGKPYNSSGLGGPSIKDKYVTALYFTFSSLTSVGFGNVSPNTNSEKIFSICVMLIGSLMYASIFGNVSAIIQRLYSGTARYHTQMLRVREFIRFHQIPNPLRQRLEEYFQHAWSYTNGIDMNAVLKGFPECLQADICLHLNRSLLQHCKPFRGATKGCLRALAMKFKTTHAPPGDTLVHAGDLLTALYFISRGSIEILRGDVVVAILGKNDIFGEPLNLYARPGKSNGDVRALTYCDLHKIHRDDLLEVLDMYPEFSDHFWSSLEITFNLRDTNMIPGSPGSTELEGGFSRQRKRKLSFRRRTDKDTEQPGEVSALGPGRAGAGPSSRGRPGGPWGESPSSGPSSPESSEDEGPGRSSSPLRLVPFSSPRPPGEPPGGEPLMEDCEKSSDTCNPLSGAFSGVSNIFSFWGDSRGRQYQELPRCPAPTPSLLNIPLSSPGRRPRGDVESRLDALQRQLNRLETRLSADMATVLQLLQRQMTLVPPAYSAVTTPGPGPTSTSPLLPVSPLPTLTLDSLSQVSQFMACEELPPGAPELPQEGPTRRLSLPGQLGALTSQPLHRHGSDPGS

Question: For `CC#CCn1c(N2CCC[C@@H](N)C2)cc(=O)n(CC#CC)c1=O`, which IC50 [1] is on record?
Answer: > 100 µM

Question: And the IC50 [2]?
Answer: > 100 µM

Question: With `CC#CCn1c(N2CCC[C@@H](N)C2)cc(=O)n(Cc2ccccc2)c1=O` as the molecule, how does the IC50 [1] read?
Answer: > 100 µM

Question: And the IC50 [2]?
Answer: > 100 µM

Question: Which IC50 [1] does the source give for `CC#CCn1c(N2CCC[C@@H](N)C2)cc(=O)n(Cc2ncccn2)c1=O` here?
Answer: > 100 µM

Question: And the IC50 [2]?
Answer: > 100 µM

Question: Which results are given for `CC#CCn1c(N2CCC[C@@H](N)C2)cc(=O)n(Cc2nc3ccccc3[nH]2)c1=O`?
Answer: IC50 [1]: > 100 µM; IC50 [2]: > 100 µM

Question: What does the source list for `CC#CCn1c(N2CCC[C@@H](N)C2)cc(=O)n(Cc2ccc3ccccc3n2)c1=O`?
Answer: IC50 [1]: > 100 µM; bioavailability [3]: 63%; IC50 [2]: > 100 µM; IC50 [4]: 97.9 µM; half-life [5]: 4.2 h

Question: For `CC#CCn1c(N2CCC[C@@H](N)C2)cc(=O)n(Cc2ccc3c(ccc4ccccc43)n2)c1=O`, which IC50 [1] is on record?
Answer: > 100 µM

Question: And the IC50 [2]?
Answer: > 100 µM

Question: What does the source list for `CC#CCn1c(N2CCC[C@@H](N)C2)cc(=O)n(Cc2ccc3cc(Br)ccc3n2)c1=O`?
Answer: IC50 [1]: > 100 µM; IC50 [2]: > 100 µM; IC50 [4]: 79.4 µM

Question: For `CC#CCn1c(N2CCC[C@@H](N)C2)cc(=O)n(Cc2ccc3cc(Cl)ccc3n2)c1=O`, which IC50 [1] is on record?
Answer: > 100 µM

Question: What about the IC50 [2] of the same molecule?
Answer: > 100 µM

Question: What about the IC50 [4] of the same molecule?
Answer: 91.9 µM

Question: What does the source list for `CC#CCn1c(N2CCC[C@@H](N)C2)cc(=O)n(Cc2ccc3cc(F)ccc3n2)c1=O`?
Answer: IC50 [1]: > 100 µM; IC50 [2]: > 100 µM; IC50 [4]: 58.3 µM

Question: Which results are given for `CC#CCn1c(N2CCC[C@@H](N)C2)cc(=O)n(Cc2ccc3cc(C)ccc3n2)c1=O`?
Answer: IC50 [1]: > 100 µM; IC50 [2]: > 100 µM; IC50 [4]: 46.2 µM

Question: Which results are given for `CC#CCn1c(N2CCC[C@@H](N)C2)cc(=O)n(Cc2ccc3cc(OC)ccc3n2)c1=O`?
Answer: IC50 [1]: > 100 µM; IC50 [2]: > 100 µM; IC50 [4]: 42.2 µM

Question: With `CC#CCn1c(N2CCC[C@@H](N)C2)cc(=O)n(Cc2ccc3ccc(Cl)cc3n2)c1=O` as the molecule, how does the IC50 [1] read?
Answer: > 100 µM

Question: And the bioavailability [3]?
Answer: 73%

Question: What about the inhibition in vivo at 3 mg/kg [6] of the same molecule?
Answer: 84.7%

Question: And the Vd/F [7]?
Answer: 8.65 L/kg

Question: What about the clearance [8] of the same molecule?
Answer: 17.5 mL/min/kg

Question: What about the inhibition in vivo at 1 mg/kg [9] of the same molecule?
Answer: 76%

Question: And the inhibition in vivo at 3 mg/kg [10]?
Answer: 82.3%

Question: And the inhibition in vivo at 1 mg/kg [11]?
Answer: 71.6%

Question: And the IC50 [2]?
Answer: > 100 µM

Question: And the IC50 [4]?
Answer: 46.2 µM

Question: What about the half-life [5] of the same molecule?
Answer: 5.02 h

Question: What about the half-life [12] of the same molecule?
Answer: 5.65 h

Question: What about the inhibition in vivo at 3 mg/kg [13] of the same molecule?
Answer: 80.4%

Question: What about the AUC(0-t) [14] of the same molecule?
Answer: 17600 ng·h/mL

Question: What about the inhibition in vivo at 1 mg/kg [15] of the same molecule?
Answer: 51.8%

Question: And the inhibition in vivo at 1 mg/kg [16]?
Answer: 11.5%

Question: What about the IC50 [17] of the same molecule?
Answer: > 100 µM

Question: And the inhibition in vivo at 3 mg/kg [18]?
Answer: 13.5%

Question: With `CC#CCn1c(N2CCC[C@@H](N)C2)cc(=O)n(Cc2ccc3ccc(F)cc3n2)c1=O` as the molecule, how does the IC50 [1] read?
Answer: > 100 µM

Question: What about the IC50 [2] of the same molecule?
Answer: > 100 µM

Question: And the IC50 [4]?
Answer: 54.7 µM

Question: With `CC#CCn1c(N2CCC[C@@H](N)C2)cc(=O)n(Cc2cc(Cl)c3ccccc3n2)c1=O` as the molecule, how does the IC50 [2] read?
Answer: > 100 µM

Question: What about the IC50 [4] of the same molecule?
Answer: 14.1 µM

Question: For `Cn1c(=O)cc(N2CCC[C@@H](N)C2)n(Cc2ccccc2C#N)c1=O` [ALOGLIPTIN], which inhibition in vivo at 3 mg/kg [6] is on record?
Answer: 71.5%

Question: What about the inhibition in vivo at 1 mg/kg [9] of the same molecule?
Answer: 49.4%

Question: What about the inhibition in vivo at 3 mg/kg [10] of the same molecule?
Answer: 50.9%

Question: What about the inhibition in vivo at 1 mg/kg [11] of the same molecule?
Answer: 27.6%

Question: And the half-life [5]?
Answer: 2 h

Question: What about the inhibition in vivo at 3 mg/kg [13] of the same molecule?
Answer: 83.8%

Question: What about the inhibition in vivo at 1 mg/kg [15] of the same molecule?
Answer: 72.6%

Question: What about the inhibition in vivo at 1 mg/kg [16] of the same molecule?
Answer: 0.5%

Question: What about the inhibition in vivo at 3 mg/kg [18] of the same molecule?
Answer: 0.8%
